From US11214572B2, “7-site substituted pyrrole triazine compounds or pharmaceutically acceptable salts thereof, and preparation method thereof and uses thereof” (SHANGHAI INSTITUTE OF MATERIA MEDICA, CHINESE ACADEMY OF …, priority 2017, dated 2022)
Values joined by “and” are separate entries in the source; they are usually repeats but may differ in a detail not shown here. Identical values can stand only once. “Also recorded” adds a separate entry of the source. Like-named read-outs stand apart in the source and are kept apart here.

Assays:
[1] = Preliminary pharmacokinetic test, intravenous injection; format: in vivo, SD rats; details: rats, intravenous injection 5 mg/kg, tested as monomesylate
Experimental: (§1) 1. 14 healthy SD rats, male, weigh 200-220 g, were taken to be randomly divided into 4 groups, 3-4 in each group, and were administered the tested compound P-17 and compound CYH33 (compared with compound P-17, missing a methyl group on 7-position) via intragastric administration (10 mg/kg) and intravenous injection (5 mg/kg) respectively, the specific arrangements are shown in the following table 3:
(§2) The rats were fasted for 12 h before experiment, water was taken freely. The rats were fed 2 h after dosing.
Dosing via intravenous: 5 min, 0.25 h, 0.5 h, 1.0 h, 2.0 h, 4.0 h, 6.0 h, 8.0 h, and 24 h after dosing.
(§3) At the above setting time points, 0.3 ml of venous blood was taken from the retroorbital venous plexus of the rat, and placed in a heparinized test tube, centrifuged at 11,000 rpm for 5 min, then the plasma was separated, and frozen in a refrigerator at −20° C.
(§4) LC/MS/MS method was used to determine the concentration of the compounds in the plasma of rats.
(§5) The non-compartment model of Phoenix 1.3 software (Pharsight Corporation, USA) was used to calculate the pharmacokinetic parameters after dosing.

[2] = Preliminary pharmacokinetic test, intragastric administration; format: in vivo, SD rats; details: rats, 10 mg/kg versus 5 mg/kg intravenous; monomesylate
Experimental: as §1, §2
Dosing via intragastric administration: 0.25 h, 0.5 h, 1.0 h, 2.0 h, 3.0 h, 4.0 h, 6.0 h, 8.0 h, and 24 h after dosing.
as §3, §4, §5

PI3Kβ = PI3Kβ (Homo sapiens, UniProt P42338); experiment: PI3K kinase activity, β isoform; details: for inhibition at 0.1 µM: read-out: IH (%) @ 100 nM, β;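 on all read-outs here: kinase reaction containing 1% DMSO, read as an emission ratio, with inhibition scaled between the 0% and 100% control ratios. IC50 values come from a ten-point fourfold dilution series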
Experimental: (§6) Concentration setting for preliminary screening: the compounds to be tested were dissolved in DMSO (dimethyl sulfoxide) to 100 μM or 10 μM as storage solutions; for each one, 2 μL was taken to be added to 48 μL of 1× Reaction Buffer to obtain a 4 μM or 400 nM compound solution containing 4% DMSO. After well mixing, the mixture was diluted with 4% DMSO in 1× Reaction Buffer to obtain a 4 μM or 400 nM compound solution. 5 μL of each diluted solution was taken to be added to a 384-well plate, so that the final concentration of the compound in the final 20 μL of the kinase reaction system was 1 μM and 100 nM or 100 nM and 20 nM, respectively, and containing 1% DMSO.
(§7) The compounds to be tested were dissolved in DMSO to 1 mM or 10 mM as working solutions, 1 μL of each working solution was taken to be added to 24 μl of 1× Kinase Buffer A to obtain a 40 μM or 400 μM compound solution containing 4% DMSO. The compound solution was diluted by 4× gradient in sequence, 10 dilution concentrations.
(§8) Calculation of the Inhibition Rate • The inhibitory rate was calculated by the following formula: Inhibitory rate=(ERsample−ER0%)/(ER100%−ER0%)×100%

PI3Kα = PI3Kα (Homo sapiens, UniProt P42336); experiment: PI3K kinase activity, α isoform; details: for inhibition at 0.02 µM: read-out: IH (%) @ 20 nM, α
Experimental: as §6, §7, §8

PI3Kδ = PI3Kδ (Homo sapiens, UniProt O00329); experiment: PI3K kinase activity, δ isoform; details: for inhibition at 0.02 µM: read-out: IH (%) @ 20 nM, δ; for selectivity for PI3Kδ (in words): versus other PI3K isoforms, from Tables 1 and 2
Experimental: as §6, §7, §8

PI3Kγ = PI3Kγ (Homo sapiens, UniProt P48736); experiment: PI3K kinase activity, γ isoform; format: biochemical; details: for inhibition at 0.1 µM: compound 100 nM, read-out: IH (%) @ 100 nM, γ;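 on all read-outs here: kinase reaction run in 384-well plates, with inhibition normalised between the 0% and 100% reference reactions. IC50 derived from a ten-point, fourfold serial dilution series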
Experimental: as §6, §7, §8

[3] = male, SD, rat, plasma, iv, 5 mg/kg, individual animal

PI3Kβ, sequence (P42338 whole entry, canonical isoform): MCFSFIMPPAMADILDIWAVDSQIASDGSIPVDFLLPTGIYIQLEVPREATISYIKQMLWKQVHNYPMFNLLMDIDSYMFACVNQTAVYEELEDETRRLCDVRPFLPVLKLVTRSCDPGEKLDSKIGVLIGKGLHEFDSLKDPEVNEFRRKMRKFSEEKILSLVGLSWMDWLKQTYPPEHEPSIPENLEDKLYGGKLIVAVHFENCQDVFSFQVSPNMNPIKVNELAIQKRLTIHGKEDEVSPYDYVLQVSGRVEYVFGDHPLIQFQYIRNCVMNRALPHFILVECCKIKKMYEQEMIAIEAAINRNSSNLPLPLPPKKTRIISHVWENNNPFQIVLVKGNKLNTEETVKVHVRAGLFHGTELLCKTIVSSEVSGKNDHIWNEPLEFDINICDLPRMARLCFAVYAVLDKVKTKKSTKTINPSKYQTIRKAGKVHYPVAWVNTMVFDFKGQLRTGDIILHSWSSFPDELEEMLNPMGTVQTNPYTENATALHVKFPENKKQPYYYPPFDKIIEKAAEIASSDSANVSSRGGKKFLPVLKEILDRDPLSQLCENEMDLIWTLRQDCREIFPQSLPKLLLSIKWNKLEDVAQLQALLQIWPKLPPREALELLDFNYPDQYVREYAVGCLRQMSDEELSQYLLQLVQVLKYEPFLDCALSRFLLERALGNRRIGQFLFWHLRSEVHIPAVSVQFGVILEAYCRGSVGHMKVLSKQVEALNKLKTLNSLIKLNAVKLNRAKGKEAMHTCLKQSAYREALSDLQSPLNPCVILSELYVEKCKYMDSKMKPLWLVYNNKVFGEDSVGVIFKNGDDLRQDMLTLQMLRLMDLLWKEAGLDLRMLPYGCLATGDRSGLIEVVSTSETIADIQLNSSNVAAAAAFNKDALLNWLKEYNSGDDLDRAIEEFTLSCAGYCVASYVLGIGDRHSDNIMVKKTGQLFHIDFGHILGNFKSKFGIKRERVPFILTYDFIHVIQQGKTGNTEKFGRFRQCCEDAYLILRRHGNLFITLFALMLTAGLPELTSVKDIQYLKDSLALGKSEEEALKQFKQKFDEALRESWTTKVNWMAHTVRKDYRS
PI3Kβ, sequence (P27986 whole entry partner, canonical isoform): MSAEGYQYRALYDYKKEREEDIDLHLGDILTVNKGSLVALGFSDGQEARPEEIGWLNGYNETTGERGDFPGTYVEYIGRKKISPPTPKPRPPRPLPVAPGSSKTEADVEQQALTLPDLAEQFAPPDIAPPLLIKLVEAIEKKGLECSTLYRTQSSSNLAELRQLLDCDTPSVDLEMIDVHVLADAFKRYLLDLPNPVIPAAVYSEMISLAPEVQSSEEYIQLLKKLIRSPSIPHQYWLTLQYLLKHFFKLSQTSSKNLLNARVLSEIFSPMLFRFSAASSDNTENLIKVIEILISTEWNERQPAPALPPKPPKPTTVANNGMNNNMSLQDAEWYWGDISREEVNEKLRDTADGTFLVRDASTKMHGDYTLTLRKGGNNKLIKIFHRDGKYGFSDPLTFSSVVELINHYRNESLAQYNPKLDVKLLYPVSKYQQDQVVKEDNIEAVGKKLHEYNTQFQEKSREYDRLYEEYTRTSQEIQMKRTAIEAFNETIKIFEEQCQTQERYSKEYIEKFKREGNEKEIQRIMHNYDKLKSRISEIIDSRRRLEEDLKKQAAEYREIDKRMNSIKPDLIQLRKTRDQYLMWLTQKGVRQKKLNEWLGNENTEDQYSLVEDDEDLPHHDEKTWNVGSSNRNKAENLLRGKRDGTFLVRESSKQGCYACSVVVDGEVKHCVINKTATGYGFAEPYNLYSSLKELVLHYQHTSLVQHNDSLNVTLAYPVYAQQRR
PI3Kδ, sequence (O00329 whole entry, canonical isoform): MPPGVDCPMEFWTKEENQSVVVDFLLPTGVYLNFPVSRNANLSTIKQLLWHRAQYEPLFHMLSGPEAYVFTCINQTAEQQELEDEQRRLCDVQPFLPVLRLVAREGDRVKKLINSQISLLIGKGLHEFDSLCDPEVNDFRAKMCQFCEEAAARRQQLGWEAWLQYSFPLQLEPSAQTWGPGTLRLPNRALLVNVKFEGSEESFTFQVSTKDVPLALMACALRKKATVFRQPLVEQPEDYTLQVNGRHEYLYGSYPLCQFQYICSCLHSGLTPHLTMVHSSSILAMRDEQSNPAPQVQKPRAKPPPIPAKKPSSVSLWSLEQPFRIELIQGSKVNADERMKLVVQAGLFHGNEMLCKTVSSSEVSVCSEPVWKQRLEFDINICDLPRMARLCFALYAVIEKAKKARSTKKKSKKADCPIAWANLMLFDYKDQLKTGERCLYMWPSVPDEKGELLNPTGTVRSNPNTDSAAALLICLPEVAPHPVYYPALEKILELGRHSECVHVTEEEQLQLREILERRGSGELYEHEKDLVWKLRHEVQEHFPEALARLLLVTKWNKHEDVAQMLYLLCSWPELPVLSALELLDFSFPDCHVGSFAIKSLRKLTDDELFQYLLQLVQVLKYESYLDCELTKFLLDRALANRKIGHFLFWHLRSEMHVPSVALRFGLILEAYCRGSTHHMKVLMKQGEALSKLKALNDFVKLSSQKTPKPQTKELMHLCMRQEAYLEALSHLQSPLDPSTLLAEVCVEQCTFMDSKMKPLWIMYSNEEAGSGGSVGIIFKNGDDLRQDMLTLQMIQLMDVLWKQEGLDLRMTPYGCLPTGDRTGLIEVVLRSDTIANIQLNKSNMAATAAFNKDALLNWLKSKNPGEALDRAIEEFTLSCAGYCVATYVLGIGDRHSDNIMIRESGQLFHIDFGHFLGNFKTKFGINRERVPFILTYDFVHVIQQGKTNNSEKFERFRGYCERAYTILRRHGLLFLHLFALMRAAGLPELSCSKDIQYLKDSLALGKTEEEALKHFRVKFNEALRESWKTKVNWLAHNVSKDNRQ
PI3Kδ, sequence (P27986 whole entry partner, canonical isoform): as the sequence (P27986 whole entry partner, canonical isoform) above
PI3Kα, sequence (P42336 whole entry, canonical isoform): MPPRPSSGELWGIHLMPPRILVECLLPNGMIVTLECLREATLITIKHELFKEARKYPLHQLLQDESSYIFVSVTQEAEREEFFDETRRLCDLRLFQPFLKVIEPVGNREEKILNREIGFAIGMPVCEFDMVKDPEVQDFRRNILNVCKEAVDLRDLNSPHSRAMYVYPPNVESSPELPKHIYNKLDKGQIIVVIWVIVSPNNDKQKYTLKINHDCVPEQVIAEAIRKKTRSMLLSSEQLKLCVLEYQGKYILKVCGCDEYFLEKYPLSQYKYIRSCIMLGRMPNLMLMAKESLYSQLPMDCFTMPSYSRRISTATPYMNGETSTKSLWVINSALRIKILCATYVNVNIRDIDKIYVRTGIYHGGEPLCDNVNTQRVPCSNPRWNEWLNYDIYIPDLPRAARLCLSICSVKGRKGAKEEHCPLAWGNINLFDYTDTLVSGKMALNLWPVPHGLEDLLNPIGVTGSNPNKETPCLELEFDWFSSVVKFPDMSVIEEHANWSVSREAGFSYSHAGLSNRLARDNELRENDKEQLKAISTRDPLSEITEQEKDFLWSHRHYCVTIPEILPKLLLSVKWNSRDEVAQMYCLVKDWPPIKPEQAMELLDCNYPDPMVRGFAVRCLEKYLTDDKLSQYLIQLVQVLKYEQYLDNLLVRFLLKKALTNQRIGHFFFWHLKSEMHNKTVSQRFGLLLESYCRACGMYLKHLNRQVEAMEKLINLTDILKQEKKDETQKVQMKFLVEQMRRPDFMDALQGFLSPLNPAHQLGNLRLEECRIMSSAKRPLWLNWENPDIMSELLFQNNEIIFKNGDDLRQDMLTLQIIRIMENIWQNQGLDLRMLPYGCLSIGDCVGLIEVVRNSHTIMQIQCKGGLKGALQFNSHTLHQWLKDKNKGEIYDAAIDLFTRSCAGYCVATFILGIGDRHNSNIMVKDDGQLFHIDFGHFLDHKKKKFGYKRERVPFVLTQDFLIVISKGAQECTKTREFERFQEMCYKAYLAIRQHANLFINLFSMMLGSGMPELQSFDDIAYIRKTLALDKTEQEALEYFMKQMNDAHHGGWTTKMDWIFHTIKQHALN
PI3Kα, sequence (P27986 whole entry partner, canonical isoform): as the sequence (P27986 whole entry partner, canonical isoform) above
PI3Kγ, sequence (P48736 whole entry, canonical isoform): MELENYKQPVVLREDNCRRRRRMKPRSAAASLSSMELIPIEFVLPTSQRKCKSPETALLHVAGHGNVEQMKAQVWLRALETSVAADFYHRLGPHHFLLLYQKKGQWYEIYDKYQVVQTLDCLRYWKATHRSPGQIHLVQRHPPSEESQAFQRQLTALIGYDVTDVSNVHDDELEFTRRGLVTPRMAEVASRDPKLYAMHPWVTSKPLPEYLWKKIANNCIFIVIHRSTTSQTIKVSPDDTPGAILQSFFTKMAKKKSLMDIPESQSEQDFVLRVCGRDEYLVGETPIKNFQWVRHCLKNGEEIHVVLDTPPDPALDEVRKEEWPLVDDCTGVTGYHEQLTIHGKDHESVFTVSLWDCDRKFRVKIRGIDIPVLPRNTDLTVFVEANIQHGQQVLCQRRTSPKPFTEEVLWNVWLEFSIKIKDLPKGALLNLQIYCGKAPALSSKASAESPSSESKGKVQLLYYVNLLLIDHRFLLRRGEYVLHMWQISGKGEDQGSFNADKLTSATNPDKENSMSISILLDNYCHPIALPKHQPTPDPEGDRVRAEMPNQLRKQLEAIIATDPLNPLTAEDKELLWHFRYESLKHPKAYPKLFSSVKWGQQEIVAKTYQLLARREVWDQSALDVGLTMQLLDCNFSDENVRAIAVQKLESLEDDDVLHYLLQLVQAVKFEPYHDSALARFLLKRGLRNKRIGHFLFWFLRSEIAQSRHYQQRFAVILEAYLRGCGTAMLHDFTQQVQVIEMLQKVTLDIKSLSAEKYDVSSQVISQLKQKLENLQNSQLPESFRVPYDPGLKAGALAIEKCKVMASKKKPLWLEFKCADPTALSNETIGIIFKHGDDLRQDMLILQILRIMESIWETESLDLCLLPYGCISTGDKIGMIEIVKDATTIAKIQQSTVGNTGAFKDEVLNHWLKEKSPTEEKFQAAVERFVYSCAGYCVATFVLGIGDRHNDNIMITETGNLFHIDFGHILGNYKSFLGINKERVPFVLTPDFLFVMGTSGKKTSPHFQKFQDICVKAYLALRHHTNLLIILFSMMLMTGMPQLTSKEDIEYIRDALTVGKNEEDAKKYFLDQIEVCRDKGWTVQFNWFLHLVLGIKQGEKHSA

Q: Which results are given for `COC(=O)Nc1cc(C(F)(F)F)c(-c2nc(N3CCOCC3)c3cc(CN4CCN(S(C)(=O)=O)CC4)cn3n2)cn1` [CYH33, reference compound]?
A: AUC(0-t) ([1]; male, SD, rat, plasma, iv, 5 mg/kg, Mean): 3540 ng·h/mL; MRT ([1]; male, SD, rat, plasma, iv, 5 mg/kg, Mean, read-out: MRT): 1.31 h; AUC(0-inf) [1, 3]: 2850 ng·h/mL; AUC(0-t) [1, 3]: 2850 ng·h/mL; clearance [1, 3]: 29.2 mL/min/kg; half-life [1, 3]: 0.83 h; MRT ([1]; male, SD, rat, plasma, iv, 5 mg/kg, individual animal, read-out: MRT): 1.1 h; Vd ([1]; male, SD, rat, plasma, iv, 5 mg/kg, individual animal, read-out: Vss): 1.93 L/kg; AUC 0 − ∞ ([1]; Mean): 3559 ng·h/mL; Cl ([1]; Mean): 24 mL/min/kg; T1/2 ([1]; Mean): 0.982 h; Vss ([1]; Mean): 1.843 L/kg; AUC 0 − t ([1]; individual animal, 5 mg/kg): 3645 ng·h/mL and 4142 ng·h/mL; AUC 0 − ∞ ([1]; individual animal, 5 mg/kg): 3655 ng·h/mL and 4172 ng·h/mL; Cl ([1]; individual animal, 5 mg/kg): 22.8 mL/min/kg and 20 mL/min/kg; MRT ([1]; individual animal, 5 mg/kg): 1.26 h and 1.57 h; T1/2 ([1]; individual animal, 5 mg/kg): 0.95 h and 1.16 h; Vss ([1]; individual animal, 5 mg/kg): 1.72 L/kg and 1.88 L/kg; F (absolute bioavailability) [2]: 36.9%

Q: What does the source list for `Cc1c(CNCCCN(C)C)cc2c(N3CCOCC3)nc(-c3cnc(N)cc3C(F)(F)F)nn12` [Compound P-2]?
A: IC50 (PI3Kβ): 2.14 µM; inhibition at 0.1 µM (PI3Kβ): 4.74%; IC50 (PI3Kα): 0.321 µM; inhibition at 0.02 µM (PI3Kα): 18.7%; IC50 (PI3Kδ): 0.0366 µM; inhibition at 0.02 µM (PI3Kδ): 46%; IC50 (PI3Kγ): 37600 nM; inhibition at 0.1 µM (PI3Kγ): 0.62%

Q: For `COCCCNCc1cc2c(N3CCOCC3)nc(-c3cnc(N)cc3C(F)(F)F)nn2c1C` [Compound P-3], which inhibition at 0.1 µM (PI3Kβ) is on record?
A: -0.12%

Q: What about the inhibition at 0.02 µM (PI3Kα) of the same compound?
A: 6.72%

Q: And the inhibition at 0.02 µM (PI3Kδ)?
A: 39.8%

Q: And the inhibition at 0.1 µM (PI3Kγ)?
A: 2.94%

Q: What does the source list for `Cc1c(CN2CCC(C(C)(C)O)CC2)cc2c(N3CCOCC3)nc(-c3cnc(N)cc3C(F)(F)F)nn12` [Compound P-5]?
A: IC50 (PI3Kβ): 1.36 µM; inhibition at 0.1 µM (PI3Kβ): 14.9%; IC50 (PI3Kα): 0.424 µM; inhibition at 0.02 µM (PI3Kα): -0.6%; IC50 (PI3Kδ): 0.0196 µM; inhibition at 0.02 µM (PI3Kδ): 53.2%; selectivity for PI3Kδ (in words) (PI3Kδ): selective inhibitory effect on PI3Kδ; also recorded: good selectivities for PI3Kδ; IC50 (PI3Kγ): 4830 nM; inhibition at 0.1 µM (PI3Kγ): -2.33%

Q: What does the source list for `CCN1CCN(Cc2cc3c(N4CCOCC4)nc(-c4cnc(N)cc4C(F)(F)F)nn3c2C)CC1` [Compound P-6]?
A: IC50 (PI3Kβ): 4.57 µM; inhibition at 0.1 µM (PI3Kβ): 11.8%; IC50 (PI3Kα): 0.624 µM; inhibition at 0.02 µM (PI3Kα): 69.7%; IC50 (PI3Kδ): 0.0353 µM; inhibition at 0.02 µM (PI3Kδ): 41.4%; selectivity for PI3Kδ (in words) (PI3Kδ): selective inhibitory effect on PI3Kδ; also recorded: good selectivities for PI3Kδ; IC50 (PI3Kγ): 9870 nM; inhibition at 0.1 µM (PI3Kγ): -4.8%

Q: Which IC50 (PI3Kβ) does the source give for `Cc1c(CN2CCC(N(C)C)CC2)cc2c(N3CCOCC3)nc(-c3cnc(N)cc3C(F)(F)F)nn12` [Compound P-7] here?
A: 3.46 µM

Q: And the inhibition at 0.1 µM (PI3Kβ)?
A: 3.43%

Q: And the IC50 (PI3Kα)?
A: 0.439 µM

Q: And the inhibition at 0.02 µM (PI3Kα)?
A: 3.6%

Q: What about the IC50 (PI3Kδ) of the same compound?
A: 0.0276 µM

Q: What about the inhibition at 0.02 µM (PI3Kδ) of the same compound?
A: 53.6%

Q: What about the “selectivity for PI3Kδ (in words)” value (PI3Kδ) of the same compound?
A: selective inhibitory effect on PI3Kδ; also recorded: good selectivities for PI3Kδ

Q: What about the IC50 (PI3Kγ) of the same compound?
A: 15300 nM

Q: What about the inhibition at 0.1 µM (PI3Kγ) of the same compound?
A: -7.96%

Q: What does the source list for `Cc1c(CN2CCN(S(C)(=O)=O)CC2)cc2c(N3CCOCC3)nc(-c3cnc(N)cc3C(F)(F)F)nn12` [Compound P-9]?
A: IC50 (PI3Kβ): 1.19 µM; inhibition at 0.1 µM (PI3Kβ): 12.8%; IC50 (PI3Kα): 0.0264 µM; inhibition at 0.02 µM (PI3Kα): 68.9%; IC50 (PI3Kδ): 0.0237 µM; inhibition at 0.02 µM (PI3Kδ): 51.2%; IC50 (PI3Kγ): 283 nM; inhibition at 0.1 µM (PI3Kγ): 31.4%

Q: With `Cc1c(CN2CCN(S(C)(=O)=O)CC2)cc2c(N3CCOC[C@@H]3C)nc(-c3cnc(N)cc3C(F)(F)F)nn12` [Compound P-10] as the compound, how does the IC50 (PI3Kβ) read?
A: 1.77 µM

Q: And the inhibition at 0.1 µM (PI3Kβ)?
A: 7.84%

Q: And the IC50 (PI3Kα)?
A: 0.104 µM

Q: What about the inhibition at 0.02 µM (PI3Kα) of the same compound?
A: 80.5%

Q: What about the IC50 (PI3Kδ) of the same compound?
A: 0.0797 µM

Q: And the inhibition at 0.02 µM (PI3Kδ)?
A: 39.7%

Q: What about the IC50 (PI3Kγ) of the same compound?
A: 202 nM

Q: What about the inhibition at 0.1 µM (PI3Kγ) of the same compound?
A: 32.1%
